Structures can show the parent of a compound that is named as a salt.
system: Chloroquine/Pyrimethamine resistant Plasmodium falciparum K1; experiment: In vitro sensitivity assay: Plasmodium falciparum by 3H-hypoxanthine incorporation; type: cell-based; conditions: Erythrocyte, P. falciparum K1 strain in human red blood cells, 3H-hypoxanthine incorporation, read-out: IC50 K1 in vitro
Method: Biological Test 1: In Vitro Sensitivity Assays: Plasmodium falciparum by ^3H-Hypoxanthine Incorporation.
The strain used for this assay is the Chloroquine/Pyrimethamine resistant Plasmodium falciparum K1 and drugs such as Chloroquine (10 mg/mL stock; start concentration 1000 ng/mL) and Artemisinine (Qinghaosu) (5 mg/mL stock; start concentration 10 ng/mL) were used as standards. Human red blood cells were used as host cells and the activity was measured using a ^3H-hypoxanthine incorporation assay.
Into a Costar™ 96-well microtitre plates, 100 μL of medium (RPMI 1640 without hypoxanthine 10.44 g/L, HEPES 5.94 g/L, Albumax® 5 g/L, Neomycin 10 mL/L, NaHCO3 2.1 g/L) were added to the wells of row containing drugs available from stock solutions of 10 mg/mL in DMSO (compounds were kept at −20° C. Since DMSO is toxic, care had to be taken not to exceed a final concentration of 0.5% DMSO). Then 100 μL of medium were added at rt to all wells of the plate. By means of a 12-well multi-pipette serial drug dilutions were prepared. A serial dilution factor of 1:2 is thus obtained. One row of wells without drugs served as controls. Next 100 μL of medium+washed human red blood cells A+(RBC) was added to the last 4 wells of the first row; these columns serve as background controls (that may be caused by 3H-hypoxanthine incorporation into RBC without the parasite). Into the remaining wells, 100 μL of medium+RBC+P. falciparum mix was added. The plates were placed for 48 h into a chamber at 37° C. gassed with a 4% CO2, 3% O2, 93% N2 mix. Finally 50 μL of medium+3H-hypoxanthine [(500 μL ^3H-hypoxanthine stock+500 μL EtOH+49 mL medium (0.5 μCi)] was added to each well and the plates were put back at 37° C. for 24 h into the chamber and gassed with a 4% CO2, 3% O2, 93% N2 mix. The plates were then read using the Cell Harvester and the data were transferred into a graphic program (Excel) and are evaluated to determine the IC50 by linear interpolation.

IC50 [nM]	SMILES
127	CC(C)(C)OC(=O)N1CC[C@@H](O)[C@H](n2c3ccc(F)cc3c3cc(Cl)ccc32)C1 (racemic) [Compound 2, trans-3-(3-Chloro-6-fluoro-carbazol-9-yl)-4-hydroxy-piperidine-1-carboxylic acid tert-butyl ester]

same assay, conditions: K1, Erythrocyte, read-out: IC50 K1 in vitro

SMILES	IC50 [nM]
Fc1ccc2c(c1)c1cc(Cl)ccc1n2[C@@H]1CCNC[C@@H]1F [Compound 12, 3-Chloro-6-fluoro-9-((3S,4R)-3-fluoro-piperidin-4-yl)-9H-carbazole hydrochloride salt]	3670
F[C@@H]1CNCC[C@@H]1n1c2ccc(Cl)cc2c2cc(Cl)ccc21 [Compound 11, 3,6-Dichloro-9-((3R,4S)-3-fluoro-piperidin-4-yl)-9H-carbazole hydrochloride salt]	1150

system: P. falciparum strain NF54; experiment: P. falciparum growth assay ([3H] hypoxanthine incorporation); type: cell-based; conditions: Plasmodium falciparum; P. falciparum NF54 strain, 72 h incubation, [3H]hypoxanthine incorporation; read-out: IC50 NF54
Method: • Cultivation of P. falciparum:
P. falciparum strain NF54 was obtained from the Research and Reference Reagent
Resource Center (MR4) (Manassas, Va.). The two strains were maintained in vitro by a modification of the method of Trager and Jensen. Cultures were maintained in A positive (A+) human erythrocytes suspended at 5% hematocrit in complete medium. 5 g albumax II (Gibco-Invitrogen, Cat No#11021037), 2.5 mg gentamicin (Sigma Aldrich), 25 mM HEPES (Invitrogen), 5 mg hypoxanthine (Sigma), and 1 L of RPMI 1640 (Invitrogen, Cat No#11875085). Cultures were grown in 100 mm petri-dishes (BD Falcon) at a volume of 15 mL and were kept in a standard gas environment of 4% CO2 and 3% 02 at temperature 37° C. in a tri-gas incubator (Cat#3131, Thermo Scientific Forma Series II Water Jacketed). Parasite growth and morphology were observed daily using thin smears at 100× (oil immersion) magnification following staining with Geimsa stain. • P. falciparum growth assay:
The protocol assesses the compound efficacy against the growth of P. falciparum in-vitro.
Parasite growth was detected in assay by the traditional [3H] hypoxanthine incorporation assay as previously described by Desjardins and colleagues (Antimicrob. Agents Chemother., 16(6), 710, 1979). To perform the [3H] hypoxanthine incorporation assay, the new antimalarial agents were serially diluted 1:1 into hypoxanthine-free complete medium to a final volume of 100 μL (final antimalarial agent concentration range, 10,000 nM to 4.8 nM may change in special case) in 96 well sterile cell culture plates. […] All cultures used in the study are albumax II adopted. The microtiter plates were incubated in chamber in a standard gas environment at 37° C. for 72 h. After 48 h of incubation and prior to addition of 50 μL (0.5 μCi/well) 3H-Hypoxanthine (specific activity, 20 Ci/mmol, Conc. 1.0 mCi/ml; American Radiolabeled Chemicals, Inc., St. Louis, Mo.), culture growth was assessed by making the smears that ensures the culture has grown in % p and assay plate is further incubated for 24 h. Following the incubation period, the plates were harvested with a FilterMate cell harvester (Perkin Elmer) onto unifilter-96 GF/B plates, washed with distilled water to remove excess radiochemical and plates were kept for drying 37° C. overnight or 60° C. for 1 h. 50 μL of Microscint scintillation cocktail (Microscint-High Efficiency LSC-Cocktail; Perkin Elmer) added in the unifilter-96 GF/B plates and kept for 15-20 min. The plates were counted in a Top Count NXT microplate scintillation and luminescence counter (Perkin Elmer). The mean values for [3H]hypoxanthine incorporation in parasitized control and non-parasitized control erythrocytes were calculated.
Assay data were analyzed using Graph pad prism ver.5 software. A variable sigmoid dose response curve is plotted keeping log concentrations at X-axis and % inhibition at Y-axis.

SMILES	IC50 [nM]
O[C@@H]1CCN(Cc2ccccc2)C[C@H]1n1c2ccc(F)cc2c2cc(F)ccc21 (relative stereo) [Compound 63, trans-1-benzyl-3-(3,6-difluoro-9H-carbazol-9-yl)piperidin-4-ol]	233
O[C@H]1CCN(Cc2ccccc2)C[C@@H]1n1c2ccc(F)cc2c2cc(F)ccc21 (single isomer, unassigned) [Compound 43]	910
O[C@@H]1CNCC[C@H]1n1c2ccc(F)cc2c2cc(F)ccc21 (racemic) [Compound 62]	263
O[C@@H]1CCNC[C@H]1n1c2ccc(C(F)(F)F)cc2c2cc(C(F)(F)F)ccc21 (racemic) [Compound 59, trans-3-(3,6-bis(trifluoromethyl)-9H-carbazol-9-yl)piperidin-4-ol]	1300
O[C@@H]1CCN(CC2CC2)C[C@H]1n1c2ccc(F)cc2c2cc(F)ccc21 [Compound 50, (3R,4R)-1-(cyclopropylmethyl)-3-(3,6-difluoro-9H-carbazol-9-yl)piperidin-4-ol]	290
O[C@@H]1CN(Cc2ccccc2)CC[C@H]1n1c2ccc(F)cc2c2cc(F)ccc21 (relative stereo) [Compound 41, trans-1-benzyl-4-(3,6-difluoro-9H-carbazol-9-yl)piperidin-3-ol]	280
O[C@@H]1CCN(Cc2ccccc2)C[C@H]1n1c2ccc(F)cc2c2cc(F)ccc21 (single isomer, unassigned) [Compound 42]	79.8
O[C@@H]1CNCC[C@H]1n1c2ccc(C(F)(F)F)cc2c2cc(C(F)(F)F)ccc21 (racemic) [Compound 68, trans-4-(3,6-bis(trifluoromethyl)-9H-carbazol-9-yl)piperidin-3-ol]	22.2
CC(C)(C)OC(=O)N1CC[C@@H](O)[C@H](n2c3ccc(F)cc3c3cc(F)ccc32)C1 (racemic) [Compound 44, trans-tert-butyl 3-(3,6-difluoro-9H-carbazol-9-yl)-4-hydroxypiperidine-1-carboxylate]	792
O[C@@H]1CNCC[C@H]1n1c2ccc(C(F)(F)F)cc2c2cc(C(F)(F)F)ccc21 [Compound 60, (3R,4R)-4-(3,6-bis(trifluoromethyl)-9H-carbazol-9-yl)piperidin-3-ol]	20.5
O[C@@H]1CCN(CCc2ccccc2)C[C@H]1n1c2ccc(F)cc2c2cc(F)ccc21 [Compound 52, (3R,4R)-3-(3,6-difluoro-9H-carbazol-9-yl)-1-phenethylpiperidin-4-ol]	169
CC(C)(C)OC(=O)N1CC[C@@H](O)[C@H](n2c3ccc(F)cc3c3cc(F)ccc32)C1 (single isomer, unassigned) [Compound 47]	576
CC(C)(C)OC(=O)N1CC[C@H](O)[C@@H](n2c3ccc(F)cc3c3cc(F)ccc32)C1 (single isomer, unassigned) [Compound 48]	1260

Second part, the compound after the results:

IC50 [nM]	SMILES
555	CC(C)(C)CN1CC[C@@H](O)[C@H](n2c3ccc(F)cc3c3cc(F)ccc32)C1 [Compound 51, (3R,4R)-3-(3,6-difluoro-9H-carbazol-9-yl)-1-neopentylpiperidin-4-ol]
1690	O[C@@H]1CCNC[C@H]1n1c2ccc(Cl)cc2c2cc(Cl)ccc21 (single isomer, unassigned) [Compound 66]
93.3	O[C@H]1CNCC[C@@H]1n1c2ccc(Cl)cc2c2cc(Cl)cnc21 (single isomer, unassigned) [Compound 19]
73.6	O[C@@H]1CCN(CC2(C(F)(F)F)CC2)C[C@H]1n1c2ccc(F)cc2c2cc(F)ccc21 [Compound 53, (3R,4R)-3-(3,6-difluoro-9H-carbazol-9-yl)-1-((1-(trifluoromethyl)cyclopropyl)methyl)piperidin-4-ol]
2240	O[C@@H]1CCN(CCC(F)(F)F)C[C@H]1n1c2ccc(Cl)cc2c2cc(Cl)cnc21 [Compound 57, (3R,4R)-3-(3,6-dichloro-9H-pyrido[2,3-b]-indol-9-yl)-1-(3,3,3-trifluoropropyl)piperidin-4-ol]
3600	O[C@@H]1CCNC[C@H]1n1c2ccc(Cl)cc2c2cc(Cl)cnc21 (single isomer, unassigned) [Compound 55]
96	O[C@@H]1CCN(CCC(F)(F)F)C[C@H]1n1c2ccc(F)cc2c2cc(F)ccc21 [Compound 45, (3R,4R)-3-(3,6-difluoro-9H-carbazol-9-yl)-1-(3,3,3-trifluoropropyl)piperidin-4-ol]
1330	CC(C)(C)OC(=O)N1CC[C@@H](n2c3ccc(F)cc3c3cc(F)ccc32)[C@H](O)C1 (racemic) [Compound 46, trans-tert-butyl 4-(3,6-difluoro-9H-carbazol-9-yl)-3-hydroxypiperidine-1-carboxylate]
33.6	O[C@@H]1CCN(CCCC(F)(F)F)C[C@H]1n1c2ccc(F)cc2c2cc(F)ccc21 [Compound 49, (3R,4R)-3-(3,6-difluoro-9H-carbazol-9-yl)-1-(4,4,4-trifluorobutyl)piperidin-4-ol]
124	O[C@@H]1CNCC[C@H]1n1c2ccc(Cl)cc2c2cc(Cl)cnc21 (single isomer, unassigned) [Compound 20]
28.2	O[C@@H]1CCN(CCC(F)(F)F)C[C@H]1n1c2ccc(Cl)cc2c2cc(Cl)ccc21 [Compound 54, (3R,4R)-3-(3,6-dichloro-9H-carbazol-9-yl)-1-(3,3,3-trifluoropropyl)piperidin-4-ol]
724	O[C@@H]1CN(CCC(F)(F)F)CC[C@H]1n1c2ccc(Cl)cc2c2cc(Cl)cnc21 [Compound 58, (3R,4R)-4-(3,6-dichloro-9H-pyrido[2,3-b]indol-9-yl)-1-(3,3,3-trifluoropropyl)piperidin-3-ol]
20.5	O[C@H]1CNCC[C@@H]1n1c2ccc(C(F)(F)F)cc2c2cc(C(F)(F)F)ccc21 [Compound 61, (3S,4S)-4-(3,6-bis(trifluoromethyl)-9H-carbazol-9-yl)piperidin-3-ol]

From patent publication US9908863B2, “Piperidinylcarbazoles” (Merck Patent GmbH, priority 2013, dated 2018)
